Data taken from the supplement of paper PMC10307832.

Assays:
Experiment in all cases: relative viability (nuclei count vs DMSO), 5 days (fraction); higher = more cells survive
Erlotinib + Phenformin = compound: C#Cc1cccc(Nc2ncnc3cc(OCCOC)c(OCCOC)cc23)c1 [Erlotinib] + N=C(N)NC(=N)NCCc1ccccc1 [Phenformin] (partner 250 µM)
Outline: (§1)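 For relative viability, nuclei counts in treated wells were divided by those in vehicle wells. Lung cancer cell lines had been pin-tool dosed in 1536-well plates the day after seeding and cultured for 5 days, then fixed and stained in one step (final 0.05% Triton X-100, 1% formaldehyde, 1 ug/ml Hoechst) and imaged at 4×. Doses were one drug alone or a fixed anchor-drug dose plus five library-drug doses (not always all listed) in √10 steps, and values are duplicate-plate medians.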

AT9283 + AZD7762 = compound: O=C(Nc1c[nH]nc1-c1nc2ccc(CN3CCOCC3)cc2[nH]1)NC1CC1 [AT9283] + NC(=O)Nc1cc(-c2cccc(F)c2)sc1C(=O)N[C@H]1CCCNC1 [AZD7762] (partner 0.2 µM)
Outline: as §1

AT9283 + Pemetrexed = compound: O=C(Nc1c[nH]nc1-c1nc2ccc(CN3CCOCC3)cc2[nH]1)NC1CC1 [AT9283] + Nc1nc2[nH]cc(CCc3ccc(C(=O)N[C@@H](CCC(=O)O)C(=O)O)cc3)c2c(=O)[nH]1 [Pemetrexed] (partner 0.2 µM)
Outline: as §1

Erlotinib + Luminespib = compound: C#Cc1cccc(Nc2ncnc3cc(OCCOC)c(OCCOC)cc23)c1 [Erlotinib] + CCNC(=O)c1noc(-c2cc(C(C)C)c(O)cc2O)c1-c1ccc(CN2CCOCC2)cc1 [Luminespib] (partner 0.01 µM)
Outline: as §1

AT9283 + Vorinostat = compound: O=C(Nc1c[nH]nc1-c1nc2ccc(CN3CCOCC3)cc2[nH]1)NC1CC1 [AT9283] + O=C(CCCCCCC(=O)Nc1ccccc1)NO [Vorinostat] (partner 1 µM)
Outline: as §1

For NCI-H441, the relative viability (Erlotinib + Phenformin; first compound 0.02 µM) was 0.883, the relative viability (Erlotinib + Phenformin; first compound 0.2 µM) was 0.863 and the relative viability (Erlotinib + Phenformin; first compound 0.6325 µM) was 0.892. It also gave a relative viability (AT9283 + AZD7762; first compound 0.003 µM) of 1.06, a relative viability (AT9283 + AZD7762; first compound 0.03 µM) of 1.1 and a relative viability (AT9283 + AZD7762; first compound 0.09487 µM) of 0.894. For the same cell line, the relative viability (AT9283 + AZD7762; first compound 0.3 µM) was 0.633, the relative viability (AT9283 + Pemetrexed; first compound 0.003 µM) was 0.228 and the relative viability (AT9283 + Pemetrexed; first compound 0.03 µM) was 0.274. For the same cell line, the relative viability (AT9283 + Pemetrexed; first compound 0.09487 µM) was 0.25, the relative viability (AT9283 + Pemetrexed; first compound 0.3 µM) was 0.238 and the relative viability (Erlotinib + Luminespib; first compound 0.02 µM) was 0.259. It also gave a relative viability (Erlotinib + Luminespib; first compound 0.2 µM) of 0.32, a relative viability (Erlotinib + Luminespib; first compound 0.6325 µM) of 0.345 and a relative viability (Erlotinib + Luminespib; first compound 2 µM) of 0.345. For the same cell line, the relative viability (AT9283 + Vorinostat; first compound 0.003 µM) was 0.698, the relative viability (AT9283 + Vorinostat; first compound 0.03 µM) was 0.499 and the relative viability (AT9283 + Vorinostat; first compound 0.09487 µM) was 0.669. The relative viability (AT9283 + Vorinostat; first compound 0.3 µM) was 0.307.
